For one experiment, the target named is T1, TRIM66-WT965-1160 (Homo sapiens, UniProt O15016).
T1 construct: ITC titration: titrating TRIM66-WT965-1160 with various histone H3 peptides; GST (N, cleaved yes); made in house; host or cells: Escherichia coli BL21 (DE3)
T1 sequence (O15016 1100-1295): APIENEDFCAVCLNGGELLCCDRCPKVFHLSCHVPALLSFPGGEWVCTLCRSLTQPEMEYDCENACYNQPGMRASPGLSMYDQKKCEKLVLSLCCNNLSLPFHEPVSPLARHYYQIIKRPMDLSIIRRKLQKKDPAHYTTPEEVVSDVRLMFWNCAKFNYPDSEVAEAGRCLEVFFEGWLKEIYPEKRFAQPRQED
Briefly: ITC, PHD-Bromodomain wild type. The following applies: ITC, MicroCal PEAQ-ITC, 25 °C, 20 mM Tris, 100 mM NaCl, pH 7.5; single measurement, error from curve fit; Weak binding = ITC curves cannot be fitted reliably; N.D. = no detectable binding. In kind it is binding. The text has this: We next performed the glutathione S-transferase (GST) pulldown assays of the TRIM66-WT965-1160 against the calf thymus histones to verify the histone-binding ability of TRIM66 PHD-Bromodomain. […] The PHD of TRIM66 shared a low conservation with those of ING4, PHF2, and BPTF, and lacked the conserved aromatic residues, which were necessary for binding H3K4me2/3[40]–[42] (Supplementary Fig. 2b). Nevertheless, TRIM66 was highly conserved in sequence and structure with the PHDs of TRIM24 and TRIM33 (Fig. 1c and Supplementary Fig. 2b), which were reported to bind H3K4me0[5],[6]; thus, we speculated that the PHD of TRIM66 could bind H3K4me0. To verify this hypothesis, we performed isothermal titration calorimetry (ITC)-based binding assays. […] Based on previous researches reporting the acetyl-lysine binding partners of Bromodomain[3]–[12], we chose a series of related peptides derived from H3 and H4, to test their interactions with TRIM66-WT965-1160 by ITC experiments. […] We further found the acetylated state of K56 was necessary for this binding (Supplementary Fig. 3b).
We next titrated the TRIM66-WT965-1160 with a series of R2-methylated H3 peptides through ITC assays. […] This finding was consistent with the structural observation that each NηH atom of the R2 formed a hydrogen bond with residues in protein (Fig. 2d).
The DNA fragments of human TRIM66_968-1160, TRIM24_824-1006, and TRIM33_882-1087 were amplified from a human bone marrow cDNA library using a PCR-based cloning strategy. The fragments of TRIM66-WT968-1160 were inserted into a pGEX-4T-1 plasmid (GE Healthcare). The fragments of TRIM24_824-1006 and TRIM33_882-1087 were ligated into a pET-SUMO-28a (+) plasmid (Novagen). The DNA fragments of TRIM66-MUT968-1160 and TRIM66-WT965-1160 with codon optimization were synthesized by General Biosystems (sequence was shown in Supplementary Methods) and inserted into a pGEXT-4T-1 plasmid (GE Healthcare). Mutants of TRIM66 PHD-Bromo were generated through PCR using the Mutant Best kit (Takara). The mutation of point mutant based on the codon-optimized DNA sequence of TRIM66-WT965-1160. All constructs were expressed in Escherichia coli BL21 (DE3). The construct of ASF1a1-156 inserted into a pRSFDuet plasmid (courtesy of Ruiming Xu Lab, Institute of Biophysics, Chinese Academy of Sciences) was expressed in E. coli BL21 (DE3) RIL. The construct of full-length H4 inserted into a pET3a plasmid was expressed in E. coli BL21 (DE3). The expression of full-length histone H3K56ac was performed in BL21 (DE3) cells transformed with pBK-AxcKRS3 and pET22b encoding H3 with amber codons at the K56 site[12]. The DNA fragment of full-length TRIM66 was synthesized by General Biosystems and ligated into fugw vector (Addgene). See the information of protein sequence in Supplementary Table 1.
(§1) The calorimetric experiments were performed at 25 °C using a MicroCal PEAQ-ITC. The proteins were dialyzed using a buffer containing 20 mM Tris and 100 mM NaCl at pH 7.5. Lyophilized peptides were dissolved in the same buffer and adjusted to pH 7.5 prior to use. Peptide concentrations were estimated from the quantitative NMR experiments[73],[74]. ITC measurements were performed via injection of 0.7–4 mM peptide into a cell containing 0.12 mM TRIM24-PHD-Bromo, 0.05 mM TRIM33 PHD-Bromo, and 0.05 or 0.11–0.15 mM TRIM66-PHD-Bromo (or its mutants). The ITC data were subsequently analyzed using the MicroCal PEAQ-ITC analysis software.
In general terms: In ITC the heat of successive injections is recorded.

The next experiment has as its target T2, TRIM66 965-1160 D971A (Homo sapiens, UniProt O15016, D1106A).
T2 construct: GST (N, cleaved yes); made in house; host or cells: Escherichia coli BL21 (DE3)
T2 sequence (O15016 1100-1295 D1106A): T1 sequence (O15016 1100-1295) with D7A
Briefly: ITC, point mutant. Conditions: 25 °C, pH 7.5, Weak binding = ITC curves cannot be fitted reliably. The method, then: (§2) We further investigated the role of the TRIM66 PHD-Bromodomain in safeguarding the genome. We first introduced a series of single amino acid mutations to the PHD domain at interaction interface and then performed corresponding ITC assays.
as §1

Another experiment has as its target T3, TRIM66 965-1160 D986A (Homo sapiens, UniProt O15016, D1121A).
T3 construct: GST (N, cleaved yes); made in house; host or cells: Escherichia coli BL21 (DE3)
T3 sequence (O15016 1100-1295 D1121A): T1 sequence (O15016 1100-1295) with D22A
Briefly: ITC, point mutant. The following applies: 25 °C, pH 7.5, Weak binding = ITC curves cannot be fitted reliably. The procedure: as §2, §1

Structures are written as SMILES. Positions count from the first letter of the chain named.

Usually Kd stands for the equilibrium constant for the complex coming apart. Higher therefore signals weaker binding.

`C[C@H](N)C(=O)N[C@@H](CCCNC(=N)N)C(=O)N[C@H](C(=O)N[C@@H](CCCCN)C(=O)N[C@@H](CCC(N)=O)C(=O)N[C@H](C(=O)N[C@@H](C)C(=O)N[C@@H](CCCNC(=N)N)C(=O)N[C@@H](CCCCN)C(=O)N[C@@H](CO)C(=O)N[C@H](C(=O)NCC(=O)O)[C@@H](C)O)[C@@H](C)O)[C@@H](C)O` [H3_1-12]: at TRIM66-WT965-1160, the Kd was 15.7 ± 0.64 µM. Moreover, the KD result on TRIM66 965-1160 D971A and at TRIM66 965-1160 D986A was “Weak binding” each time.

Source of the values: article PMC6753139, “TRIM66 reads unmodified H3R2K4 and H3K56ac to respond to DNA damage in embryonic stem cells” (Nature Communications, 2019).
